Assay results as given in ChEMBL document CHEMBL5352381, “Design and development of a novel series of oral bivalent BET inhibitors with potent anticancer activities” (Eur J Med Chem, 2022).
The source made the active and inactive calls. The calls are words filed in the database; no cut-off is given here.

Key:
Ty-82 [1] = assay: Antiproliferative activity against human Ty-82 cells incubated for 72 hrs by sulforhodamine B based cell counting kit-8 assay; type: functional; details: TY82, 72 h
MM1.S [2] = assay: Antiproliferative activity against human MM1.S cells incubated for 72 hrs by sulforhodamine B based cell counting kit-8 assay; type: functional
MV4-11 [3] = assay: Antiproliferative activity against human MV4-11 cells; type: functional, cell-based
[4] = Half life in CD-1 mouse at 10 mg/kg, po; type: ADME, organism-based; details: in vivo
[5] = Tmax in CD-1 mouse at 10 mg/kg, po; type: ADME, organism-based; details: in vivo
[6] = Cmax in CD-1 mouse at 10 mg/kg, po; type: ADME, organism-based; set-up: dose 10 mg/kg, route po; details: in vivo
[7] = AUClast in CD-1 mouse at 10 mg/kg, po; type: ADME, organism-based; set-up: dose 10 mg/kg, route po; details: in vivo
[8] = Observed AUC infinity in CD-1 mouse at 10 mg/kg, po; type: ADME, organism-based; set-up: dose 10 mg/kg, route po; details: in vivo
[9] = Observed MRT infinity in CD-1 mouse at 10 mg/kg, po; type: ADME, organism-based; details: in vivo
MM1.S [10] = assay: Antitumor activity against human MM1.S cells xenografted in BALB/c nude mouse assessed growth inhibition treated at 1.5 mg/kg, po qd for 10 days adjusted to qod from day 11 to 21 due to body weight loss relative to control; type: functional; details: 504 h, time 21 day, read-out: GI
MM1.S [11] = assay: Antitumor activity against human MM1.S cells xenografted in BALB/c nude mouse assessed growth inhibition treated at 0.5 mg/kg, po qd for 21 days relative to control; type: functional; details: 504 h, time 21 day, read-out: GI
[12] = Toxicity in BALB/c mouse xenografted with human MM1.S assessed body weight loss treated at 1.5 mg/kg, po qd for 10 days; type: organism-based; details: in vivo, 240 h, time 10 day
MM1.S [13] = assay: Antitumor activity against human MM1.S cells xenografted in BALB/c nude mouse assessed growth inhibition treated at 3 mg/kg, po qd for 10 days followed by dose adjustment to 1.5 mg/kg from day 11 to 21 due to body weight loss relative to control; type: functional; details: dose 1.5-3 mg/kg, time 21 day, at 1.5 to 3 mg/kg
[14] = Toxicity in BALB/c mouse xenografted with human MM1.S assessed body weight loss treated at 3 mg/kg, po qd for 10 days; type: organism-based; details: in vivo, 240 h, time 10 day
[15] = Metabolic stability in human liver microsomes assessed as half life; type: ADME, Microsome
[16] = Metabolic stability in dog liver microsomes assessed as half life; type: ADME, Canis lupus familiaris, Microsome
[17] = Metabolic stability in mouse liver microsomes assessed as half life; type: ADME, Microsome
[18] = Metabolic stability in human liver microsomes assessed as clearance; type: ADME, Microsome; details: read-out: CLH
[19] = Metabolic stability in dog liver microsomes assessed as clearance; type: ADME, Canis lupus familiaris, Microsome; details: read-out: CLH
[20] = Metabolic stability in mouse liver microsomes assessed as clearance; type: ADME, Microsome; details: read-out: CLH
Ty-82 [21] = assay: Antitumor activity against human Ty-82 cells xenografted in BALB/c nude mouse assessed tumor growth inhibition treated at 0.5 mg/kg, po qd for 21 days relative to control; type: functional; details: TY82, 504 h, time 21 day, read-out: TGI
[22] = Toxicity in BALB/c mouse xenografted with human Ty-82 assessed as body weight loss treated at 0.25 to 0.5 mg/kg, po qd for 21 days; type: organism-based; details: in vivo, 504 h, dose 0.25-0.5 mg/kg, time 21 day
[23] = Toxicity in BALB/c mouse xenografted with human Ty-82 assessed as death treated at 0.25 to 0.5 mg/kg, po qd for 21 days; type: organism-based; details: in vivo, 504 h, dose 0.25-0.5 mg/kg, time 21 day
Ty-82 [24] = assay: Induction of apoptosis in human Ty-82 cells assessed as reduction of IDO1 mRNA level at 0.1 to 10 nM for 24 hrs by […]; type: functional, cell-based; details: dose 0.1-10 nM
Ty-82 [25] = assay: Induction of apoptosis in human Ty-82 cells assessed as reduction of c-Myc mRNA level at 0.1 to 10 nM for 24 hrs by […]; type: functional, cell-based; details: dose 0.1-10 nM
Ty-82 [26] = assay: Induction of apoptosis in human Ty-82 cells for 48 hrs by annexin V-FITC based flow cytometric analysis; type: functional, cell-based; details: dose 0.1-10 nM
CAPAN-1 [27] = assay: Induction of apoptosis in human CAPAN-1 cells for 48 hrs by annexin V-FITC based flow cytometric analysis; type: functional, cell-based; details: dose 0.1-10 nM
Ty-82 [28] = assay: Induction of apoptosis in human Ty-82 cells assessed as increase in caspase 9 at 0.1 to 10 nM for 48 hrs […]; type: functional, cell-based; details: dose 0.1-10 nM
CAPAN-1 [29] = assay: Induction of apoptosis in human CAPAN-1 cells assessed as increase in caspase 9 at 0.1 to 10 nM for 48 hrs […]; type: functional, cell-based; details: dose 0.1-10 nM
Ty-82 [30] = assay: Induction of apoptosis in human Ty-82 cells assessed as increase in caspase 3 at 0.1 to 10 nM for 48 hrs […]; type: functional, cell-based; details: dose 0.1-10 nM
CAPAN-1 [31] = assay: Induction of apoptosis in human CAPAN-1 cells assessed as increase in caspase 3 at 0.1 to 10 nM for 48 hrs […]; type: functional, cell-based; details: dose 0.1-10 nM
Ty-82 [32] = assay: Induction of apoptosis in human Ty-82 cells assessed as increase in caspase 7 at 0.1 to 10 nM for 48 hrs […]; type: functional, cell-based; details: dose 0.1-10 nM
CAPAN-1 [33] = assay: Induction of apoptosis in human CAPAN-1 cells assessed as increase in caspase 7 at 0.1 to 10 nM for 48 hrs […]; type: functional, cell-based; details: dose 0.1-10 nM
Ty-82 [34] = assay: Induction of apoptosis in human Ty-82 cells assessed as increase in cleaved PARP at 0.1 to 10 nM for 48 hrs […]; type: functional, cell-based; details: dose 0.1-10 nM
CAPAN-1 [35] = assay: Induction of apoptosis in human CAPAN-1 cells assessed as increased cleaved PARP at 0.1 to 10 nM for 48 hrs […]; type: functional, cell-based; details: dose 0.1-10 nM
MV4-11 [36] = assay: Antitumor activity against human MV4-11 cells xenografted in BALB/c mouse assessed as growth inhibition at 0.6 mg/kg, po qd 21 days relative to control; type: functional; details: MV4-11, 504 h, time 21 day, read-out: GI

| Compound | IC50 (Ty-82 [1]) | IC50 (MM1.S [2]) | half-life [4] | Tmax [5] | Cmax [6] | AUC(0-t) [7] | AUC(0-inf) [8] | MRT [9] | further results |
| --- | --- | --- | --- | --- | --- | --- | --- | --- | --- |
| Cc1ccc(-n2nc(C(=O)N3CCC4(CCN(C(=O)c5nc(-c6ccc7c(c6)N(C6CCCC6)[C@H](C)C(=O)N7C)n(-c6ccc(C)cc6)n5)C4)C3)nc2-c2ccc3c(c2)N(C2CCCC2)[C@H](C)C(=O)N3C)cc1 | 2.5 nM | 0.74 nM | – | – | – | – | – | – | – |
| Cc1sc2c(c1C)C(c1ccc(Cl)cc1)=NC(CC(=O)OC(C)(C)C)c1nnc(C)n1-2 (stereo not given) | – | – | – | – | – | – | – | – | IC50 (MV4-11 [3]): 72.2 nM |
| Cc1ccc(-n2nc(C(=O)N3CCCN(C(=O)c4nc(-c5ccc6c(c5)N(C5CCCC5)[C@H](C)C(=O)N6C)n(-c5ccc(C)cc5)n4)CC3)nc2-c2ccc3c(c2)N(C2CCCC2)[C@H](C)C(=O)N3C)cc1 | – | – | 0.15 h | 0.5 h | 286 ng/mL | 368 ng·h/mL | 371 ng·h/mL | 2.57 h | – |
| Cc1ccc(-n2nc(C(=O)N3C[C@H](C)N(C(=O)c4nc(-c5ccc6c(c5)N(C5CCCC5)[C@H](C)C(=O)N6C)n(-c5ccc(C)cc5)n4)C[C@H]3C)nc2-c2ccc3c(c2)N(C2CCCC2)[C@H](C)C(=O)N3C)cc1 | – | – | 0.19 h | 2.33 h | 1340 ng/mL | 4570 ng·h/mL | 4620 ng·h/mL | 3.82 h | inhibition in vivo at 1.5 mg/kg (MM1.S [10]): 91.5%; inhibition in vivo at 0.5 mg/kg (MM1.S [11]): 66.5%; Activity [12]: Toxic |
| Cc1ccc(-n2nc(C(=O)N3CC4(C3)CN(C(=O)c3nc(-c5ccc6c(c5)N(C5CCCC5)[C@H](C)C(=O)N6C)n(-c5ccc(C)cc5)n3)C4)nc2-c2ccc3c(c2)N(C2CCCC2)[C@H](C)C(=O)N3C)cc1 | 76 nM | 12.6 nM | – | – | – | – | – | – | – |
| Cc1ccc(-n2nc(C(=O)NCCNC(=O)c3nc(-c4ccc5c(c4)N(C4CCCC4)[C@H](C)C(=O)N5C)n(-c4ccc(C)cc4)n3)nc2-c2ccc3c(c2)N(C2CCCC2)[C@H](C)C(=O)N3C)cc1 | – | – | – | 2.76 h | 33.7 ng/mL | – | – | – | – |
| Cc1ccc(-n2nc(C(=O)N3C[C@H](C)N(C(=O)c4nc(-c5ccc6c(c5)N(C5CCCC5)[C@H](C)C(=O)N6C)n(-c5ccc(C)cc5C)n4)C[C@H]3C)nc2-c2ccc3c(c2)N(C2CCCC2)[C@H](C)C(=O)N3C)c(C)c1 | 0.75 nM | 0.29 nM | – | – | – | – | – | – | – |
| Cc1ccc(-n2nc(C(=O)N(C)CCN(C)C(=O)c3nc(-c4ccc5c(c4)N(C4CCCC4)[C@H](C)C(=O)N5C)n(-c4ccc(C)cc4)n3)nc2-c2ccc3c(c2)N(C2CCCC2)[C@H](C)C(=O)N3C)cc1 | – | – | 0.49 h | 0.25 h | 264 ng/mL | 124 ng·h/mL | 129 ng·h/mL | 1.07 h | – |
| Cc1ccc(-n2nc(C(=O)N3CCN(C(=O)c4nc(-c5ccc6c(c5)N(C5CCCC5)[C@H](C)C(=O)N6C)n(-c5ccc(C)cc5)n4)[C@H](C)C3)nc2-c2ccc3c(c2)N(C2CCCC2)[C@H](C)C(=O)N3C)cc1 | – | – | 2.82 h | 2 h | 823 ng/mL | 4150 ng·h/mL | 4170 ng·h/mL | 4.85 h | growth inhibition (GI) (MM1.S [13]): 78.6%; Activity [14]: Toxic |
| Cc1ccc(-n2nc(C(=O)N3C[C@H](C)N(C(=O)c4nc(-c5ccc6c(c5)N(C5CCC5)[C@H](C)C(=O)N6C)n(-c5ccc(C)cc5)n4)C[C@H]3C)nc2-c2ccc3c(c2)N(C2CCC2)[C@H](C)C(=O)N3C)cc1 | 0.05 nM | 0.04 nM | – | – | – | – | – | – | half-life [15]: 48.7 h; half-life [16]: 34.7 h; half-life [17]: 9.48 h; microsomal CLint [18]: 0.5 µL/min/mg; microsomal CLint [19]: 0.7 µL/min/mg; microsomal CLint [20]: 2.4 µL/min/mg; inhibition in vivo at 0.5 mg/kg (Ty-82 [21]): 61%; Activity [22]: Toxic; Activity [23]: Non-Toxic |
| CCS(=O)(=O)Nc1ccc(Oc2ccc(F)cc2F)c(-c2cn(C)c(=O)c3[nH]ccc23)c1 [MIVEBRESIB] | – | – | – | – | – | – | – | – | inhibition in vivo at 0.5 mg/kg (Ty-82 [21]): 67.6%; Activity [22]: Toxic; Activity [23]: Non-Toxic; Activity (Ty-82 [24]): Active; Activity (Ty-82 [25]): Active; Activity (Ty-82 [26]): Dose-Dependent Effect; Activity (CAPAN-1 [27]): Dose-Dependent Effect; Activity (Ty-82 [28]): Active; Activity (CAPAN-1 [29]): Active; Activity (Ty-82 [30]): Active; Activity (CAPAN-1 [31]): Active; Activity (Ty-82 [32]): Active; Activity (CAPAN-1 [33]): Active; Activity (Ty-82 [34]): Active; Activity (CAPAN-1 [35]): Active; inhibition in vivo at 0.6 mg/kg (MV4-11 [36]): 66.9% |
